Experimental findings from patent US12134651B2, “Anti-Ryk antibodies and methods of using the same” (The Regents of the University of California, priority 2016, dated 2024) are described below.

“Also recorded” adds a separate entry of the source.

The experiment has as its system E16.5 cortical neurons. Kind of experiment: Protection of cortical neurons from axonal degeneration induced by aPKC PS. In kind it is cell-based, mouse. The following applies: 10 μM taxol 2 h prior to and during 2 h treatment of 7 μM aPKC PS. On the procedure: Cerebral cortical cell culture—E16.5 mouse pregnant females were sacrificed by CO2 asphyxia and cervical dislocation. Embryos were removed from uterine horns. Skin, skull, and meninges were removed from embryo heads. The cortex was dissected in L-15 medium (Sigma), digested with 0.025% trypsin/0.221 mM EDTA (Mediatech) for 20 min followed by incubation in 5% horse serum prepared in L-15 medium for 5 min to inhibit trypsin. […]
Image acquisition and analysis—All images were acquired on an inverted Zeiss LSM510 confocal microscope with LSM acquisition software (Carl Zeiss Microscopy). For quantification of P-PKCζ T410 immunoreactivity in cell cultures, exposure time was adjusted to be under the saturation level for the highest immunofluorescence signal and was conserved between the different samples. Mean immunofluorescence intensity level in neuronal cell bodies was measured using FiJi-ImageJ software (NIH). All quantifications were performed on 10 non-overlapping fields in cell cultures from at least three independent experiments and on four non-consecutive sections from at least three animals for in vivo experiments. […]

On to `CC(=O)O[C@H]1C(=O)[C@@]2(C)[C@H]([C@H](OC(=O)c3ccccc3)[C@]3(O)C[C@H](OC(=O)[C@H](O)[C@@H](NC(=O)c4ccccc4)c4ccccc4)C(C)=C1C3(C)C)[C@]1(OC(C)=O)CO[C@@H]1C[C@@H]2O` [taxol, reference compound], for which the “axon degeneration induced by aPKC inhibition” value was “reduced; also recorded: partially prevented”.
